The text below walks through data of patent US6818203B2, “Use of perfluoroalkyl-containing metal complexes as contrast media in MR-imaging for visualization of plaque, tumors and necroses” (Schering Aktiengesellschaft, priority 2000, dated 2004).

The conditions of data set [1]: in vivo; cited from earlier work.
Data set [2] relates to iliac lymph nodes. In words: lymph node visualization (MRT) after intravenous administration in VX2-tumor-bearing rabbits. The class given is in vivo. How it is done: The pictures of FIG. 6 show MR images of an iliac lymph node and of a primary tumor (VX2-tumor implanted i.m.) precontrast, 60 minutes and 20 hours after intravenous administration of 100 μmol of Gd/kg of body weight of metal complex I in rabbits. […] The enhancement in the healthy lymph node tissue was 382% at the time of 15 minutes p.i. and 419% at the time of 60 minutes p.i. […] The ratio of signal intensities of healthy lymph node tissue to metastasis was 3.0 at the time of 15 minutes p.i. and 3.4 at the time of 60 minutes p.i. […] The enhancement in the healthy lymph node tissue was 246% at the time of 15 minutes p.i. and 282% at the time of 60 minutes p.i. […] The ratio of signal intensities of healthy lymph node tissue to metastasis was 2.5 at the time of 15 minutes p.i. and 1.7 at the time of 60 minutes p.i. […] The enhancement in the healthy lymph node tissue was 297% at the time of 10 minutes p.i. and 269% at the time of 60 minutes p.i. […] The ratio of signal intensities of healthy lymph node tissue to metastasis was 5.1 at the time of 10 minutes p.i. and 1.9 at the time of 60 minutes p.i. […] The enhancement in the healthy lymph node tissue was 195% at the time of 15 minutes p.i. and 233% at the time of 60 minutes p.i. […] The ratio of signal intensities of healthy lymph node tissue to metastasis was 1.9 at the time of 15 minutes p.i. and 1.8 at the time of 60 minutes p.i.

Data set [3] in a line: proton relaxivity in plasma (R^1), Minispec P 20. The class given is physicochemical. As to conditions: 40° C., 0.47 tesla, bovine plasma. As for the experimental part:
As a third criterion, the proton-relaxivity in plasma (R^1) at 40° C. and a field strength of 0.47 tesla is used. The relaxivity, which is indicated in [l/mmol·s], is the quantitative measurement for the shortening of relaxation time T^1 of the protons. For the purpose according to the invention, the relaxivity must be as high as possible and >10 l/mmol·s, preferably >13 l/mmol·s, especially preferably >15 l/mmol·s.
Relaxivity R^1 [l/mmol·s] of the MR-contrast media according to the invention was determined with the Minispec P 20 device of the Bruker Company. The measurements were taken at 40° C. and a field strength of 0.47 tesla. Eight measuring points were recorded by each T1-sequence: 180°-TI-90°, inversion recovery. As a medium, bovine plasma of the Kraeber Company was used. The contrast medium concentrations [mmol/l] in the batches were between 0.30 and 1.16.

Data set [4] concerns myocardial infarction. In words: infarction visualization (MRT) after intravenous administration in rats with acutely induced myocardial infarction. The class given is in vivo. As to conditions: 24 hours after i.v. 100 μmol of Gd/kg. An excerpt: The successful induction of an acute myocardial infarction was confirmed by means of NBT-staining.
Data set [5] is described as follows: critical micelle formation concentration (CMC) by tensiometry. The class given is physicochemical. How it is done: In aqueous systems, these amphiphilic molecules show the properties that are characteristic of standard surfactants (such as, e.g., sodium dodecylsulfate, SDS). They thus reduce the surface tension of water. By tensiometry, the so-called CMC (critical micelle formation concentration in mol/l) can be determined. In this respect, the surface tension is determined based on the concentration of the substance to be measured. The CMC can be calculated from the plot of the surface tension function (c) that is obtained. The critical micelle formation concentration of the compounds according to the invention must be <10^−3 mol/l, preferably <10^−4 mol/l.
(§1) Both the determination of the CMC and the photon correlation spectroscopy are described in H.-D. Dörfler, “Grenzflächen- und Kolloidchemie [Interface and Colloid Chemistry],” Weinheim, New York, Basel, Cambridge, Tokyo, VSH 1994.

Data set [6] is described as follows: hydrodynamic micelle diameter (2 Rh) by photon correlation spectroscopy (PCS). The class given is physicochemical.
Source text: The amphiphilic compounds according to the invention are combined in solution and are present as aggregates. The size (2 Rh) of such aggregates (e.g., micelles, rods, wafers, etc.) can be determined with the aid of […] (PCS).
As a second criterion, the hydrodynamic micelle diameter 2 Rh, which must be >1 nm, is therefore used. Those perfluoroalkyl-containing metal complexes according to the invention whose 2 RH is ≧3, quite especially preferably >4 nm, are especially suitable.
as §1

Data set [7] has as its system primary tumor (VX2-tumor implanted i.m.). In words: tumor visualization (MRT) after intravenous administration in VX2-tumor-bearing rabbits. The class given is in vivo. How it is done: The pictures of FIG. 6 show MR images of an iliac lymph node and of a primary tumor (VX2-tumor implanted i.m.) precontrast, 60 minutes and 20 hours after intravenous administration of 100 μmol of Gd/kg of body weight of metal complex I in rabbits. […]

In data set [8] the test system is arteriosclerotic plaque. In words: MRT-visualization of arteriosclerotic plaque after intravenous administration. The class given is in vivo, Watanabe rabbits. An excerpt: Based on the contrast between the plaque with strong signals and the healthy vessel wall with little or no signals, a diagnosis of the arteriosclerotic vessel wall changes was possible.
The localization of the plaque, especially in aortic arches and in vascular passages, was confirmed by means of Sudan-III-staining.
The localization of the plaque, especially in aortic arches as well as in vascular passages, was confirmed by means of Sudan-III-staining. Then, the MR-imaging of the agar-embedded preparation was again examined with a T1-weighted gradientecho sequence (MPRage; 1.5 T; TR 11.1 ms, TE 4.3 ms, 15° flip angle α; NA: 2; matrix: 213*256) and a spin-echo sequence (1.5 T; TR: 400 ms, TE: 15 ms; NA: 16; matrix: 256*256) (post mortem image).

The subject of data set [9] is infarcted tissue. As to conditions: cited from earlier work.
[10] abbreviates: 24 hours after contrast medium administration, 200 μmol of Gd/kg i.v.

“And” between values parts separate entries of the source, which are not always exact repeats. Identical values can stand only once.

Regarding `O=S(=O)([O-])c1ccc(-c2c3nc(c(-c4ccc(S(=O)(=O)[O-])cc4)c4ccc([nH]4)c(-c4ccc(S(=O)(=O)[O-])cc4)c4nc(c(-c5ccc(S(=O)(=O)[O-])cc5)c5ccc2[nH]5)C=C4)C=C3)cc1.[Mn+4]` [Mn-TPPS, manganese-5,10,15,20-tetrakis(4-sulfonatophenyl)-porphyrin], in data set [1], the LD50 result is reported as “approximately 0.5 mmol/kg” and the “dose at which an action starts” value is recorded as 0.2 mmol/kg.
Consider `CC(C(=O)NCC(=O)N1CCN(S(=O)(=O)C(F)(F)C(F)(F)C(F)(F)C(F)(F)C(F)(F)C(F)(F)C(F)(F)C(F)(F)F)CC1)N1CCN(CC(=O)[O-])CCN(CC(=O)[O-])CCN(CC(=O)[O-])CC1.[Gd+3]` (centres unmarked) [metal complex I, Gadolinium complex of 10-[1-methyl-2-oxo-3-aza-5-oxo-{4-perfluorooctyl-sulfonyl-piperazin-1-yl}-pentyl]-1,4,7-tris(carboxymethyl)-1,4,7,10-tetraazacyclododecane], for which the “signal in healthy lymph node tissue (T1-weighted gradient-echo images)” value in [2] (100 μmol of Gd/kg i.v., 60 minutes and 20 hours) is recorded as “strong signal rise”. In addition, the “R^1 Plasma (relaxivity)” value in [3] stood at 35.7 mmol⁻¹ s⁻¹. Further, the “signal in the infarction area (T1-weighted spin-echo images)” value in data set [4] is reported as “strong signal rise”. In data set [5], the “CMC (critical micelle formation concentration)” value (from here on “CMC”) came to 1.86e-06 mol/L. The “2 Rh (hydrodynamic micelle diameter)” value in data set [6] is 4.6 nm. The “enhancement of the primary tumor (especially the periphery)” value in [7] (60 minutes p.i., 100 μmol of Gd/kg i.v.) is “considerable enhancement”. In [7] (20 hours p.i., 100 μmol of Gd/kg i.v.), the “course of the signal rise of the primary tumor” value was “propagated in the more central region of the tumor”. In addition, the “enhancement of a pathological structure (optionally secondary tumor or necrosis) on the contralateral side” value in data set [7] (late images, 100 μmol of Gd/kg i.v.) was “late enhancement”.
For the molecule `CCN(CCCCCC(=O)NCC(O)CN1CCN(CC(=O)[O-])CCN(CC(=O)[O-])CCN(CC(=O)[O-])CC1)S(=O)(=O)C(F)(F)C(F)(F)C(F)(F)C(F)(F)C(F)(F)C(F)(F)C(F)(F)C(F)(F)F.[Gd+3]` (centres unmarked) [metal complex XII, Gadolinium complex of 10-[2-hydroxy-4-aza-5-oxo-11-aza-11-(perfluorooctyl-sulfonyl)-tridecyl]-1,4,7-tris(carboxymethyl) 1,4,7,10-tetraazacyclododecane], the “R^1 Plasma (relaxivity)” value in [3] came out at 30.5 mmol⁻¹ s⁻¹. Further, the “CMC” value in data set [5] was 1.07e-05 mol/L. Further, the “2 Rh (hydrodynamic micelle diameter)” value in data set [6] is given as 7.4 nm.
Take `O=C([O-])CN1CCN(CC(=O)[O-])CCN(CC(O)CNC(=O)CN(Cc2ccccc2)S(=O)(=O)C(F)(F)C(F)(F)C(F)(F)C(F)(F)C(F)(F)C(F)(F)C(F)(F)C(F)(F)F)CCN(CC(=O)[O-])CC1.[Gd+3]` (centres unmarked) [metal complex XIII, Gadolinium complex of 10-[2-hydroxy-4-aza-5-oxo-7-aza-7-(perfluorooctyl-sulfonyl)-8-phenyl-octyl]-1-4-7-tris(carboxymethyl)-1,4,7,10-tetraazacyclododecane]: the “R^1 Plasma (relaxivity)” value in [3] turned out to be 34.0 mmol⁻¹ s⁻¹. Also, the “CMC” value in data set [5] was 3.25e-06 mol/L. In addition, the “2 Rh (hydrodynamic micelle diameter)” value in data set [6] was 4.3 nm.
Regarding `CC(C(=O)NCC(=O)NCCCC[C@H](NC(=O)CO[C@H]1O[C@H](CO)[C@@H](O)[C@H](O)[C@@H]1O)C(=O)N1CCN(S(=O)(=O)C(F)(F)C(F)(F)C(F)(F)C(F)(F)C(F)(F)C(F)(F)C(F)(F)C(F)(F)F)CC1)N1CCN(CC(=O)[O-])CCN(CC(=O)[O-])CCN(CC(=O)[O-])CC1.[Gd+3]` (stereo partly drawn) [metal complex XV, 6-N-[1,4,7-Tris(carboxylatomethyl)-1,4,7,10-tetraazacyclododecane-10-N-(pentanoyl-3-aza-4-oxo-5-methyl-5-yl)]-2-N-[1-O-α-D-carbonylmethyl-mannopyranose]-L-lysine-[1-(4-perfluorooctylsulfonyl)-piperazine]-amide, Gd complex], in [2] (200 μmol of Gd/kg i.v.), the “signal in healthy lymph node tissue (T1-weighted gradient-echo images)” value is reported as “strong signal rise”. In data set [2] (setting [10]), the “signal in the metastasis, late” value is given as “considerable signal rise” and the “signal rise in healthy lymph node tissue, late” value was “reduced”. The “signal in zones within the lymph node diagnosed as metastases (confirmed histologically)” value in [2] (early images, 200 μmol of Gd/kg i.v.) is recorded as “without signal rise”. The “R^1 Plasma (relaxivity)” value in data set [3] turned out to be 15.9 mmol⁻¹ s⁻¹. Besides, the “signal in arteriosclerotic plaque (MR images of the aorta)” value in [8] (35 minutes, 60 minutes and 24 hours after i.v. 10 μmol of Gd/kg) is recorded as “strong signal rise”. Moreover, the “signal in the arteriosclerotic plaque (MR images of the aorta)” value in data set [8] (24 hours and 48 hours after i.v. 25 μmol of Gd/kg) is on record as “strong signal rise”. The “correlation of the aortic sections with strong signal rise and Sudan-III stained plaque” value in [8] (post mortem image of the agar-embedded preparation, 10 μmol of Gd/kg i.v.) is recorded as “excellent correlation”. In addition, the “signal in the infarction area (T1-weighted spin-echo images)” value in data set [4] is recorded as “strong signal rise”. Further, in data set [5], the “CMC” value is 2.5e-06 mol/L. Further, the “2 Rh (hydrodynamic micelle diameter)” value in data set [6] is listed as 4.4 nm. In addition, the “course of the enhancement of the primary tumor” value in [7] (24 hours p.i., 200 μmol of Gd/kg i.v.) is “propagates out from the center of the tumor”. For the same molecule, in data set [7] (immediately after administration, 200 μmol of Gd/kg i.v.), the “enhancement of the primary tumor (especially the periphery)” value was “considerable enhancement”.
`CC(C(=O)NCC(=O)NCCCC[C@H](NC(=O)CNC(=O)C(C)N1CCN(CC(=O)[O-])CCN(CC(=O)[O-])CCN(CC(=O)[O-])CC1)C(=O)N1CCN(S(=O)(=O)C(F)(F)C(F)(F)C(F)(F)C(F)(F)C(F)(F)C(F)(F)C(F)(F)C(F)(F)F)CC1)N1CCN(CC(=O)[O-])CCN(CC(=O)[O-])CCN(CC(=O)[O-])CC1.[Gd+3].[Gd+3]` (some centres unmarked) [metal complex XVI]: in [3], the “R^1 Plasma (relaxivity)” value was found to be 21.3 mmol⁻¹ s⁻¹. Also, the “CMC” value in data set [5] worked out at 3.9e-05 mol/L. Also, the “2 Rh (hydrodynamic micelle diameter)” value in [6] amounted to 4.9 nm.
Consider gadolinium-mesoporphyrin [Gd-MP], for which the “ratio of the signal intensities during MRI for infarcted tissue in comparison to healthy tissue” value in data set [9] (infarcted kidney and myocardium (both cases)) is 2.10 and 2.19. In addition, the “metal content of the infarcted organ compared with non-infarcted” value in [9] (kidney (Example 3 of WO 95/31219)) was “as high as that of the non-infarcted organ”. The “metal content in the infarcted tissue compared with non-infarcted” value in data set [9] (myocardium (Example 1 of WO 95/31219)) was “nine times as high”.
